Test results published in patent publication US10106538B2, “Inhibitors of protein kinases” (PRINCETON DRUG DISCOVERY INC, priority 2015, dated 2018).

Legend:
Test in all cases: Off-chip Mobility Shift Assay (MSA) kinase inhibition
Assay type in all cases: biochemical
BTK = molecular target: T1, BTK (Homo sapiens, UniProt Q06187); conditions: for inhibition at 0.1 µM: inhibitor concentration 0.1 μM
T1 construct: purchased Carna Biosciences
How it was run: (§1)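 Compound, substrate/ATP/metal mix and kinase were combined in 20 mM HEPES, 0.01% Triton X100, 2 mM DTT, pH 7.5 and incubated 1 or 5 hour(s) at room temperature. Kinase inhibition was read by off-chip mobility shift.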

FGFR2 = molecular target: T2, FGFR2 (Homo sapiens, UniProt P21802); conditions: for inhibition at 0.1 µM: inhibitor concentration 0.1 μM
T2 construct: purchased Carna Biosciences
T2 sequence (P21802 22-821): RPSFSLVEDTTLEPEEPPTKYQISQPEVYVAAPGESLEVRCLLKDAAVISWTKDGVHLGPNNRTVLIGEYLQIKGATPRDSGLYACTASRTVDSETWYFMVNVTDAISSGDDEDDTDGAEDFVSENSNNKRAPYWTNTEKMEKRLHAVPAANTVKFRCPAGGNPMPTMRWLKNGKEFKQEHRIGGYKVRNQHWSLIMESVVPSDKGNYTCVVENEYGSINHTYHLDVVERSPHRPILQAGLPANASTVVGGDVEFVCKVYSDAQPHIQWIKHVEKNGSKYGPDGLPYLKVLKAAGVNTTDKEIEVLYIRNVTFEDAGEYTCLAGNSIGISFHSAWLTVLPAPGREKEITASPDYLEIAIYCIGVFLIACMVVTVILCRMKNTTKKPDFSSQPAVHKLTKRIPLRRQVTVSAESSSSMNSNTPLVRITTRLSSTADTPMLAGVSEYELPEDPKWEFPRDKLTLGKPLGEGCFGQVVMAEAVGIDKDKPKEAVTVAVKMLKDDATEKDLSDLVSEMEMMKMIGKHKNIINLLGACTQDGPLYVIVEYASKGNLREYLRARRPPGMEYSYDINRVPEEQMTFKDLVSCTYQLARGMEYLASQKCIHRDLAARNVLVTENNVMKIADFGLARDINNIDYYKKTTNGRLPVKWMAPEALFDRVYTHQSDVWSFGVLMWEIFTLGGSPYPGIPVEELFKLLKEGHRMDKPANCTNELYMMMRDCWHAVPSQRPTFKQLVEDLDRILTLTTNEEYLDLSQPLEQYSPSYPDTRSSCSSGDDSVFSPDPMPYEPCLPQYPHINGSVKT
How it was run: as §1

FGR = molecular target: T3, FGR (Homo sapiens, UniProt P09769); conditions: for inhibition at 0.1 µM: inhibitor concentration 0.1 μM
T3 construct: purchased Carna Biosciences
T3 sequence (P09769 whole entry): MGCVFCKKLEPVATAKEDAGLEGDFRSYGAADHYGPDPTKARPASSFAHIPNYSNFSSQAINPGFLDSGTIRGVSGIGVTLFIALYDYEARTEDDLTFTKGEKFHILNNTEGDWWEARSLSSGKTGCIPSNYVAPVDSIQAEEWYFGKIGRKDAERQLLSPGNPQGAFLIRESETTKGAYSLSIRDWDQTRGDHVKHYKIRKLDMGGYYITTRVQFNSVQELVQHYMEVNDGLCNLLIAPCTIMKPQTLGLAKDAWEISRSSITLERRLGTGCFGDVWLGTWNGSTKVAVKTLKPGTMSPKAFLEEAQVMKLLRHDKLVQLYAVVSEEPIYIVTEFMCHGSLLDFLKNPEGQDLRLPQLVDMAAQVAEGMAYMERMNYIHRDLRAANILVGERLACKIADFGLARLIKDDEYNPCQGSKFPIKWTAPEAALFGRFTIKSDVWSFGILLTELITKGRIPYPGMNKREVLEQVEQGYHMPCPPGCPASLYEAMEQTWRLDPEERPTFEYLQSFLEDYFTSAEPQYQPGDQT
How it was run: as §1

FLT3 = molecular target: T4, FLT3 (Homo sapiens, UniProt P36888); conditions: for inhibition at 0.1 µM: inhibitor concentration 0.1 μM
T4 construct: purchased Carna Biosciences
T4 sequence (P36888 27-993): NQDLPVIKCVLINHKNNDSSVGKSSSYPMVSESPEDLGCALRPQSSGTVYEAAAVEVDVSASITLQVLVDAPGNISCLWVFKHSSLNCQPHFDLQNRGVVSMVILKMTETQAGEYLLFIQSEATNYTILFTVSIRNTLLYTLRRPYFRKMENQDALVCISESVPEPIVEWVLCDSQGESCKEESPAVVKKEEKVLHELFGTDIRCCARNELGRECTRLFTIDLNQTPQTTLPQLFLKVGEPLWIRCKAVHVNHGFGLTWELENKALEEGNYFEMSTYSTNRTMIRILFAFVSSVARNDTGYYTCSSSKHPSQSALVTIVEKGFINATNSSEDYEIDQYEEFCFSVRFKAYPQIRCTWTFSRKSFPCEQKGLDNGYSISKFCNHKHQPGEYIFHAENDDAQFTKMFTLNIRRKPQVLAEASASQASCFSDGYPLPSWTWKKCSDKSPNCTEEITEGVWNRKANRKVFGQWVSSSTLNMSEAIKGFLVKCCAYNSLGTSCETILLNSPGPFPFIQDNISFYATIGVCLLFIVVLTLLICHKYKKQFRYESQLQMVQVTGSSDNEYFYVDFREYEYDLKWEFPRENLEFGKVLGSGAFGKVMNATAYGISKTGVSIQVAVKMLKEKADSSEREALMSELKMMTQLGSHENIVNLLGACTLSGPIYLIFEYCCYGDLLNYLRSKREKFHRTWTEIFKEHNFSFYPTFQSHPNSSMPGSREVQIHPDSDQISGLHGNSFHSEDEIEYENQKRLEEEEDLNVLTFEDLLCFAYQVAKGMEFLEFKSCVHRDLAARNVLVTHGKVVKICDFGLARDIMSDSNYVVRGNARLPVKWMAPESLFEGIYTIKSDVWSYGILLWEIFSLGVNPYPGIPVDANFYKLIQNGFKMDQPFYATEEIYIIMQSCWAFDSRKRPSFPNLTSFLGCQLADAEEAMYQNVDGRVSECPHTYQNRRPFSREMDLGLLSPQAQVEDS
How it was run: as §1

HER4 = molecular target: T5, HER4 (Homo sapiens, UniProt Q15303); conditions: for inhibition at 0.1 µM: inhibitor concentration 0.1 μM
T5 construct: purchased Carna Biosciences
How it was run: as §1

KIT(D816V) = molecular target: T6, KIT(D816V) (Homo sapiens, UniProt P10721, D816V); conditions: for inhibition at 0.1 µM: inhibitor concentration 0.1 μM
T6 construct: purchased Carna Biosciences
T6 sequence (P10721 26-976 D816V): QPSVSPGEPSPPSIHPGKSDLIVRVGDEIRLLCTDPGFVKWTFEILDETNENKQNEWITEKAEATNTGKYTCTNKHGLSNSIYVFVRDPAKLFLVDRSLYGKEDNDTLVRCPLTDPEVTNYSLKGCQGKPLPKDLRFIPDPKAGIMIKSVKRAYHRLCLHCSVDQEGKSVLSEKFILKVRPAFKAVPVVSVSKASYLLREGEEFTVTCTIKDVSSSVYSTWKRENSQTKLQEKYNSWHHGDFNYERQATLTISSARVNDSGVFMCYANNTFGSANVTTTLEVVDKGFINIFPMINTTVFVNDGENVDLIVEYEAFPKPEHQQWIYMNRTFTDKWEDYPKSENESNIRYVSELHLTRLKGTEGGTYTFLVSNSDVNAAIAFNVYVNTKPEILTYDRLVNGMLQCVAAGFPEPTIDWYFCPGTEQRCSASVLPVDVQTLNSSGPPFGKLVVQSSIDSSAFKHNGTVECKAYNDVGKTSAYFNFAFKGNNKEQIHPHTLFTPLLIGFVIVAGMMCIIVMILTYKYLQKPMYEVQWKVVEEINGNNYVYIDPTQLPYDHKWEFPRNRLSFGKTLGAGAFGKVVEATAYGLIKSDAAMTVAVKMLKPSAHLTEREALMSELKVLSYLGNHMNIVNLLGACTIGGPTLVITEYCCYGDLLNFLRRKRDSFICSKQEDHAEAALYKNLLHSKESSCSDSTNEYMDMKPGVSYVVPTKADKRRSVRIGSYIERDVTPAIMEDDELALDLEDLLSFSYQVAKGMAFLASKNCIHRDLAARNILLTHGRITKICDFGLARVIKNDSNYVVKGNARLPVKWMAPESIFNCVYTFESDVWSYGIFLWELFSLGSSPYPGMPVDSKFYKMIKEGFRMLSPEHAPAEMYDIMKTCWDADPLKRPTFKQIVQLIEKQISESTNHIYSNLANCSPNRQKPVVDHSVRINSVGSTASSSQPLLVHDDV
How it was run: as §1

KIT(V560G) = molecular target: T7, KIT(V560G) (Homo sapiens, UniProt P10721, V560G); conditions: for inhibition at 0.1 µM: inhibitor concentration 0.1 μM
T7 construct: purchased Carna Biosciences
T7 sequence (P10721 26-976 V560G): as the sequence (P10721 26-976 D816V) above, with V535G, V791D counted along it
How it was run: as §1

LYNb = molecular target: T8, LYNb (Homo sapiens, UniProt P07948); conditions: for inhibition at 0.1 µM: inhibitor concentration 0.1 μM
T8 construct: purchased Carna Biosciences
How it was run: as §1

MAP2K1 = molecular target: T9, MAP2K1 (Homo sapiens, UniProt Q02750); conditions: for inhibition at 0.1 µM: inhibitor concentration 0.1 μM
T9 construct: purchased Carna Biosciences
How it was run: as §1

RET = molecular target: T10, RET (Homo sapiens, UniProt P07949); conditions: for inhibition at 0.1 µM: inhibitor concentration 0.1 μM
T10 construct: purchased Carna Biosciences
T10 sequence (P07949 29-1114): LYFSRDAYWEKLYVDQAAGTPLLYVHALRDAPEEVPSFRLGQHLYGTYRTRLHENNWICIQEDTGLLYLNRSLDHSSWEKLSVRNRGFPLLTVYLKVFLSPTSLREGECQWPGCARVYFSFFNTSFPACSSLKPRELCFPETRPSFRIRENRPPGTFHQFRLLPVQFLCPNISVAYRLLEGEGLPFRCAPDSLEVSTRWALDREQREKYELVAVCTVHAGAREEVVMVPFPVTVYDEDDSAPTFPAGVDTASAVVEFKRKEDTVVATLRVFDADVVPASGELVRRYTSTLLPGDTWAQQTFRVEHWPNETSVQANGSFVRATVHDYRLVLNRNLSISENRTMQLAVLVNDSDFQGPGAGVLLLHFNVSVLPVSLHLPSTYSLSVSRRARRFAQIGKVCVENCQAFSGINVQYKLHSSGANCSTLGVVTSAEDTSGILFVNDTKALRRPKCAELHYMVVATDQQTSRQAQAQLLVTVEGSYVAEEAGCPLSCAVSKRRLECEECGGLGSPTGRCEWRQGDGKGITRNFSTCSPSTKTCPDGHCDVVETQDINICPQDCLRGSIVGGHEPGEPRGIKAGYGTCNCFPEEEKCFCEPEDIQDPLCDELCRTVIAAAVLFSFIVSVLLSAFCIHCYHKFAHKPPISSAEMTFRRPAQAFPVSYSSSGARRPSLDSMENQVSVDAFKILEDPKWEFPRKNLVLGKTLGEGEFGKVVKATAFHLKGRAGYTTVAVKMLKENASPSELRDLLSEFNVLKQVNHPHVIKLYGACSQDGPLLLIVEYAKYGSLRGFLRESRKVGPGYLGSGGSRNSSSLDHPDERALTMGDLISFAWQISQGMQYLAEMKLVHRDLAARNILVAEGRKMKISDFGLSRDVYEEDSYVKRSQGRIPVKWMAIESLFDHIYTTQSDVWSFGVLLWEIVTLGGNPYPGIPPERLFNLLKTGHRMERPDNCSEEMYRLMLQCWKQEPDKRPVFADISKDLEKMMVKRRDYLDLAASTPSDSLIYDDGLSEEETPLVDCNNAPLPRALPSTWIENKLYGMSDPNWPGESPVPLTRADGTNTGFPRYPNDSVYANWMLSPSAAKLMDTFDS
How it was run: as §1

AXL = molecular target: T11, AXL (Homo sapiens, UniProt P30530); conditions: inhibitor concentration 0.1 μM
T11 construct: purchased Carna Biosciences
T11 sequence (P30530 26-894): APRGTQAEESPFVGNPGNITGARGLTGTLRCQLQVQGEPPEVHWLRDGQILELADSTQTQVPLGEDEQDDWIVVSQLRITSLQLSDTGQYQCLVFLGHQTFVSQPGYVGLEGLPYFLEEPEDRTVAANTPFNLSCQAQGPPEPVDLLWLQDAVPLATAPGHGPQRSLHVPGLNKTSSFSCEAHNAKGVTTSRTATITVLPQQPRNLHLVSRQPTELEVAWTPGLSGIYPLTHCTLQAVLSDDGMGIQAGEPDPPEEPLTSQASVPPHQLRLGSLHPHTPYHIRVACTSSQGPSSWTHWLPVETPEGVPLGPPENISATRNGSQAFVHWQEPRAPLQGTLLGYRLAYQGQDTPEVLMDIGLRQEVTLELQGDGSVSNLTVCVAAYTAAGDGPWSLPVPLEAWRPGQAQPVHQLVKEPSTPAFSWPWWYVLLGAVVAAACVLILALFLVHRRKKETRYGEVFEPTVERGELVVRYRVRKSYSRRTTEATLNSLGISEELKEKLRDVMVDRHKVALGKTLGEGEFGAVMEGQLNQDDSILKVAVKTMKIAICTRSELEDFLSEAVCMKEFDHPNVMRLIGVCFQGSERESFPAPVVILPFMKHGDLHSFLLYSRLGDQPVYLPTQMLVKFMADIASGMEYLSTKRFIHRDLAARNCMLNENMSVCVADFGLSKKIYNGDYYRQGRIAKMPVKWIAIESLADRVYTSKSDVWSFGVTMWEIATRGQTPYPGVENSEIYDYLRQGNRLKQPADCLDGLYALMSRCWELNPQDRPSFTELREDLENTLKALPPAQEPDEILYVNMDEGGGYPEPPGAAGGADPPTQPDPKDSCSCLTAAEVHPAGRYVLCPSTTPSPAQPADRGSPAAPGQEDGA
How it was run: as §1

EGFR(L858R) = molecular target: T12, EGFR(L858R) (Homo sapiens, UniProt P00533, L858R); conditions: inhibitor concentration 0.1 μM
T12 construct: purchased Carna Biosciences
T12 sequence (P00533 25-1210 L858R): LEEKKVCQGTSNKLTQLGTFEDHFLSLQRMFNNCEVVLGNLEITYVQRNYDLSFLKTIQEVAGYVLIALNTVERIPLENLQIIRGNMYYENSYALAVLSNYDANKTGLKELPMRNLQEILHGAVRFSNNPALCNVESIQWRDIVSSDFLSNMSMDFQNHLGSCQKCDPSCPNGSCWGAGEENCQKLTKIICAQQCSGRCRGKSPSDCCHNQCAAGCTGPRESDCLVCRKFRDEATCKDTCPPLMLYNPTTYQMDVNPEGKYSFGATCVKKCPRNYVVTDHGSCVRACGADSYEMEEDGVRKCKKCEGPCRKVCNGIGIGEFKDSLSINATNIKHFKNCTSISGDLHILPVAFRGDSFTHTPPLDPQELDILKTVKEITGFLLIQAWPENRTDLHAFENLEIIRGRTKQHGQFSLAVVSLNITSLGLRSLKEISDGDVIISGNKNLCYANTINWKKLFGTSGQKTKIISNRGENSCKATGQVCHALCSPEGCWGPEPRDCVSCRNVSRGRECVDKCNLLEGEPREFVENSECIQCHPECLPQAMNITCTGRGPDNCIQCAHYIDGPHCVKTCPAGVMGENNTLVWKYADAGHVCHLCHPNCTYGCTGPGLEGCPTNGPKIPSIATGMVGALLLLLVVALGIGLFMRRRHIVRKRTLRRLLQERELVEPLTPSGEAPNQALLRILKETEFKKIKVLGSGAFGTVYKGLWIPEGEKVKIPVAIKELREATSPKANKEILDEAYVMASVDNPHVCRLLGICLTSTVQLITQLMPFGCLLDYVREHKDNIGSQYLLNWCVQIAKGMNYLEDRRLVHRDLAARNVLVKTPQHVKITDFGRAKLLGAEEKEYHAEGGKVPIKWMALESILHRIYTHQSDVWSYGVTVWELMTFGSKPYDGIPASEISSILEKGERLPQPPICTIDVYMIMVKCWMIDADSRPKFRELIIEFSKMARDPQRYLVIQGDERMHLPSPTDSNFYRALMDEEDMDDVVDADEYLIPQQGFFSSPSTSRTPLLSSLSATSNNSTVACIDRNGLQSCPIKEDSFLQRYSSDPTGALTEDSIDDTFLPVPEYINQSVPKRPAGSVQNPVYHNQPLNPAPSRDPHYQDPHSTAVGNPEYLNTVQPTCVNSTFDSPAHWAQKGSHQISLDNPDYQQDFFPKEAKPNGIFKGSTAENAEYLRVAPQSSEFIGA
How it was run: as §1

MAP3K4 = molecular target: T13, MAP3K4 (Homo sapiens, UniProt Q9Y6R4); conditions: inhibitor concentration 0.1 μM
T13 construct: purchased Carna Biosciences
How it was run: as §1

PIM2 = molecular target: T14, PIM2 (Homo sapiens, UniProt Q9P1W9); conditions: inhibitor concentration 0.1 μM
T14 construct: purchased Carna Biosciences
T14 sequence (Q9P1W9 whole entry): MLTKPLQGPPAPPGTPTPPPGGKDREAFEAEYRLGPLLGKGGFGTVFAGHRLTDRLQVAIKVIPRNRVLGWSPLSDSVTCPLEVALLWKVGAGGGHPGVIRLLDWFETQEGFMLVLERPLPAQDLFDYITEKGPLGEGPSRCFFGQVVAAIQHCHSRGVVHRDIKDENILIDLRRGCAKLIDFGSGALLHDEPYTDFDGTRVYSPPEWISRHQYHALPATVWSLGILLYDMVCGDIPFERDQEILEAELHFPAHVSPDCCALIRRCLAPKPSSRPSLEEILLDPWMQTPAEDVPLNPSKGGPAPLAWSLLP
How it was run: as §1

RON = molecular target: T15, RON (Homo sapiens, UniProt Q04912); conditions: inhibitor concentration 0.1 μM
T15 construct: purchased Carna Biosciences
How it was run: as §1

[1] = inhibitor concentration 0.01 μM
[2] = inhibitor concentration 0.01 μM, 0.01 µM

Row | SMILES | inhibition at 0.1 µM (BTK) | inhibition at 0.1 µM (FGR) | inhibition at 0.1 µM (KIT(V560G)) | inhibition at 0.1 µM (LYNb) | inhibition at 0.1 µM (RET) | inhibition at 0.1 µM (AXL) | inhibition at 0.1 µM (EGFR(L858R)) | inhibition at 0.1 µM (FGFR2) | inhibition at 0.1 µM (FLT3) | inhibition at 0.1 µM (HER4) | inhibition at 0.1 µM (KIT(D816V)) | inhibition at 0.1 µM (MAP2K1) | inhibition at 0.1 µM (MAP3K4) | inhibition at 0.1 µM (PIM2) | inhibition at 0.1 µM (RON) | further results
1 | O=C(c1c(F)ccc(NS(=O)(=O)CCCO)c1F)c1c[nH]c2ncc(-c3ccc(Cl)cc3)cc12 [200-17, N-[3-[5-(4-chlorophenyl)-1H-pyrrolo[2,3-b]pyridine-3-carbonyl]-2,4-difluorophenyl]-3-hydroxypropane-1-sulfonamide] | < 50% | > 50% | > 50% | > 50% | < 50% | – | – | – | – | – | – | – | – | – | – | inhibition at 0.01 µM (BTK; [1]): < 30%; inhibition at 1 µM (BTK; inhibitor concentration 1 μM): < 50%; inhibition at 1 µM (FGFR2; inhibitor concentration 1 μM): > 50%; inhibition at 0.01 µM (FGR; [1]): > 30%; inhibition at 1 µM (FGR; inhibitor concentration 1 μM): > 50%; inhibition at 1 µM (FLT3; inhibitor concentration 1 μM): > 50%; inhibition at 1 µM (HER4; inhibitor concentration 1 μM): > 50%; inhibition at 1 µM (KIT(D816V); inhibitor concentration 1 μM): > 50%; inhibition at 0.01 µM (KIT(V560G); [1]): < 30%; inhibition at 1 µM (KIT(V560G); inhibitor concentration 1 μM): > 50%; inhibition at 0.01 µM (LYNb; [1]): < 30%; inhibition at 1 µM (LYNb; inhibitor concentration 1 μM): > 50%; inhibition at 1 µM (MAP2K1; inhibitor concentration 1 μM): < 50%; inhibition at 0.01 µM (RET; [1]): < 30%; inhibition at 1 µM (RET; inhibitor concentration 1 μM): > 50%
2 | CC(=O)CS(=O)(=O)Nc1ccc(F)c(C(=O)c2c[nH]c3ncc(-c4ccc(Cl)cc4)cc23)c1F [200-117] | < 30% | > 30% | < 30% | > 30% | < 30% | < 30% | < 30% | < 30% | < 30% | < 30% | < 30% | < 30% | < 30% | < 30% | < 30% | –
3 | CC(O)CS(=O)(=O)Nc1ccc(F)c(C(=O)c2c[nH]c3ncc(-c4ccc(Cl)cc4)cc23)c1F (centres unmarked) [200-115] | < 30% | > 30% | < 30% | < 30% | < 30% | < 30% | < 30% | < 30% | < 30% | < 30% | < 30% | < 30% | < 30% | < 30% | < 30% | –
4 | O=C(c1c(F)ccc(NS(=O)(=O)CC(O)CO)c1F)c1c[nH]c2ncc(-c3ccc(Cl)cc3)cc12 (stereo not drawn) [200-73, N-[3-[5-(4-chlorophenyl)-lH-pyrrolo [2,3-b]pyridine-3-carbonyl]-2,4-difluorophenyl]-2,3-dihydroxypropane-l-sulfonamide] | < 30% | < 30% | < 30% | < 30% | < 30% | < 30% | < 30% | < 30% | < 30% | < 30% | < 30% | < 30% | < 30% | < 30% | < 30% | –
5 | C/C=C/S(=O)(=O)Nc1ccc(F)c(C(=O)c2c[nH]c3ncc(-c4ccc(Cl)cc4)cc23)c1F [200-93b] | – | – | – | – | – | – | – | – | – | – | – | – | – | – | – | FGR inhibition (FGR; [2]): >20%; KIT(D816V) inhibition (KIT(D816V); [2]): <20%; KIT(V560G) inhibition (KIT(V560G); [2]): <20%
